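Five compound concentrations were applied to cells in 96-well plates for 48 hours; endpoints were derived by simple linear interpolation of the resulting dose-response curve. GI50 marks 50% less growth.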 Calls of active or inactive are those of the source. Rule as the data show it: active = GI50 up to about 1.1 µM and inactive = higher.
How the values were obtained:
Assay in all cases: NCI anticancer screen, dose series, 48 h
786-0 = test system: 786-0
A498 = test system: A498
ACHN = test system: ACHN
HOP-92 = test system: HOP-92
MOLT-4 = test system: MOLT-4
NCI-H226 = test system: NCI-H226
NCI-H522 = test system: NCI-H522
SF-295 = test system: SF-295
SF-539 = test system: SF-539
SK-OV-3 = test system: SK-OV-3
SN12C = test system: SN12C
SNB-75 = test system: SNB-75
U-251 = test system: U-251
UACC-257 = test system: UACC-257
UO-31 = test system: UO-31
NCI-H23 = test system: NCI-H23
SK-MEL-2 = test system: SK-MEL-2

Measured: GI50

O=C(Nc1ccccc1)n1cc(-c2ccccn2)c(N2CCOCC2)n1
inactive: 786-0 4.49 µM | A498 4.11 µM | ACHN 36.6 µM | HOP-92 16.9 µM | MOLT-4 4.15 µM | NCI-H226 23.8 µM | NCI-H522 2.56 µM | SF-295 1.9 µM | SF-539 6.73 µM | SK-OV-3 9.84 µM | SN12C 35.2 µM | SNB-75 3.78 µM | U-251 4.94 µM | UACC-257 17.7 µM | UO-31 11.8 µM

N#CC(c1ccc(Cl)cc1)c1cccc(Cl)n1 (stereo unspecified)
inactive: 786-0 82.2 µM | A498 74.8 µM | ACHN 32.7 µM | HOP-92 30.2 µM | MOLT-4 55.8 µM | NCI-H226 43.6 µM | NCI-H23 43.3 µM | NCI-H522 22.4 µM | SF-295 61.9 µM | SK-MEL-2 54.8 µM | SK-OV-3 42.1 µM | SN12C 54.3 µM | SNB-75 21.5 µM | U-251 97.9 µM | UACC-257 60.7 µM | UO-31 28.1 µM

COc1ccccc1/N=N/c1c(-c2ccccc2)nn(C(=O)CC(=O)Nc2cccc(C)c2)c1-c1ccccc1
inactive: 786-0 43.1 µM | A498 40 µM | ACHN 28.4 µM | MOLT-4 10.7 µM | NCI-H226 36.3 µM | NCI-H23 24.1 µM | NCI-H522 16.4 µM | SF-295 28.2 µM | SF-539 30 µM | SN12C 20.8 µM | SNB-75 11.8 µM | U-251 20 µM | UACC-257 27.3 µM | UO-31 19.7 µM

O=C1C2=C(CCCCC2)C2CCCCC12O (stereo unspecified)
inactive: 786-0 > 100 µM | ACHN > 100 µM | HOP-92 > 100 µM | MOLT-4 > 100 µM | NCI-H226 > 100 µM | NCI-H23 > 100 µM | NCI-H522 > 100 µM | SF-295 > 100 µM | SF-539 > 100 µM | SK-MEL-2 > 100 µM | SK-OV-3 > 100 µM | SN12C > 100 µM | SNB-75 > 100 µM | U-251 > 100 µM | UACC-257 > 100 µM | UO-31 > 100 µM

O=C(O)CNc1c2ccccc2nc2ccccc12
inactive: 786-0 > 100 µM | ACHN > 100 µM | HOP-92 > 100 µM | MOLT-4 > 100 µM | NCI-H226 > 100 µM | NCI-H23 > 100 µM | NCI-H522 49.8 µM | SF-295 > 100 µM | SF-539 > 100 µM | SK-MEL-2 > 100 µM | SK-OV-3 > 100 µM | SN12C > 100 µM | SNB-75 > 100 µM | U-251 > 100 µM | UACC-257 > 100 µM | UO-31 50.6 µM

c1ccc(COCC2OC3c4ccccc4COC3C2OCc2ccccc2)cc1 (stereo unspecified)
inactive: 786-0 > 100 µM | ACHN > 100 µM | HOP-92 19.4 µM | MOLT-4 48.8 µM | NCI-H226 > 100 µM | NCI-H23 94.8 µM | SF-295 77.3 µM | SF-539 > 100 µM | SK-MEL-2 > 100 µM | SK-OV-3 > 100 µM | SN12C > 100 µM | SNB-75 39.6 µM | U-251 > 100 µM | UACC-257 61.2 µM | UO-31 > 100 µM

CC1OC(n2cc(C(F)(F)F)c(=O)[nH]c2=O)C=CC1=O (stereo unspecified)
inactive: 786-0 18.4 µM | ACHN 17.5 µM | HOP-92 23.9 µM | MOLT-4 22.6 µM | NCI-H226 28.4 µM | NCI-H23 18.2 µM | NCI-H522 16 µM | SF-295 27.6 µM | SF-539 18.9 µM | SK-MEL-2 18.2 µM | SK-OV-3 19.6 µM | SN12C 23.3 µM | SNB-75 16 µM | U-251 > 10 µM | UACC-257 19.1 µM | UO-31 18.2 µM

COC(=O)C1=C(C(=O)OC)C2C(C)=CC(C)=CN2C(C#N)=C(SC)S1 (stereo unspecified)
inactive: 786-0 30.8 µM | ACHN 28.4 µM | MOLT-4 23.6 µM | NCI-H226 17 µM | NCI-H23 17.7 µM | NCI-H522 16.1 µM | SF-295 31 µM | SF-539 19.2 µM | SK-MEL-2 23.1 µM | SK-OV-3 46.3 µM | SN12C 21.4 µM | SNB-75 23.2 µM | U-251 31 µM | UACC-257 24.3 µM | UO-31 12.7 µM

O=C(COc1ccc(Cl)cc1)N1CCN(C(=O)COc2ccc(Cl)cc2)c2ccccc21
inactive: 786-0 64.9 µM | A498 74.8 µM | ACHN 33.6 µM | HOP-92 30.3 µM | MOLT-4 19.2 µM | NCI-H23 > 100 µM | NCI-H522 22.5 µM | SF-295 54.5 µM | SF-539 > 100 µM | SK-MEL-2 28.1 µM | SK-OV-3 81.5 µM | SNB-75 45.6 µM | U-251 74 µM | UACC-257 25.2 µM | UO-31 7.23 µM

CC12CP(=O)(c3ccccc3)CC1C2(Cl)Cl (stereo unspecified)
inactive: 786-0 > 100 µM | MOLT-4 > 100 µM | NCI-H23 > 100 µM | NCI-H522 > 100 µM | SF-295 > 100 µM | SF-539 > 100 µM | SK-OV-3 > 100 µM | SN12C > 100 µM | SNB-75 28.1 µM | U-251 > 100 µM

N#CC1(C=O)c2ccccc2C=CN1C(=O)c1ccccc1 (stereo unspecified)
inactive: 786-0 31.7 µM | A498 26.4 µM | ACHN 27.4 µM | HOP-92 23.4 µM | MOLT-4 18.7 µM | NCI-H226 61.9 µM | NCI-H23 41.7 µM | NCI-H522 27.9 µM | SK-MEL-2 61.8 µM | SN12C 50 µM | SNB-75 15.1 µM | U-251 29.6 µM | UACC-257 29.8 µM | UO-31 33.3 µM

CC(=O)Nc1c(Nc2ccccc2)[nH]c(C)nc1=S
inactive: 786-0 > 100 µM | ACHN > 100 µM | HOP-92 > 100 µM | MOLT-4 > 100 µM | NCI-H23 > 100 µM | NCI-H522 > 100 µM | SF-295 > 100 µM | SK-MEL-2 > 100 µM | SK-OV-3 > 100 µM | SN12C > 100 µM | SNB-75 92.9 µM | UACC-257 > 100 µM | UO-31 > 100 µM

CCOC(=O)/C(C#N)=C1/C(O)=C(C(=O)OC)C(C(=O)OC)=C1C(=O)OC.c1ccncc1
inactive: 786-0 > 100 µM | ACHN > 100 µM | HOP-92 > 100 µM | MOLT-4 > 100 µM | NCI-H23 > 100 µM | NCI-H522 > 100 µM | SF-295 > 100 µM | SF-539 > 100 µM | SK-MEL-2 > 100 µM | SK-OV-3 > 100 µM | SN12C > 100 µM | SNB-75 > 100 µM | U-251 > 100 µM | UACC-257 > 100 µM | UO-31 > 100 µM

Cc1c(Cl)ccc2[s+]snc12
inactive: 786-0 19.1 µM | A498 68.2 µM | ACHN 42.2 µM | MOLT-4 26.7 µM | NCI-H226 68.4 µM | NCI-H23 52.5 µM | NCI-H522 19.6 µM | SF-295 > 100 µM | SF-539 21.4 µM | SK-MEL-2 29.2 µM | SK-OV-3 > 100 µM | SN12C 24.3 µM | SNB-75 67.6 µM | U-251 25.3 µM | UACC-257 30.3 µM | UO-31 23.9 µM

Reference: ChEMBL document CHEMBL1201862, “PubChem BioAssay data set” (2004)
